Data taken from BindingDB's records for doi:10.1021/cb400407c (Duke University Medical Center, 2013).
Where “and” joins values, the source holds several entries; their conditions need not be identical. Equal values may be shown once.

Columns and labels:
Assay in all cases: Kinome Profiling
[1] = biological target: Serine/threonine-protein kinase pim-2 (Homo sapiens, UniProt Q9P1W9)
Procedure: (§1) HS38 was evaluated using a P-33 ATP filter-binding assay by the International Centre for Kinase Profiling (University of Dundee) against 124 purified protein kinases using previously described methods.

[2] = biological target: Serine/threonine-protein kinase pim-1 (Homo sapiens, UniProt P11309)
Procedure: as §1

[3] = biological target: Death-associated protein kinase 1 (Homo sapiens, UniProt P53355)
Procedure: as §1

[4] = biological target: Serine/threonine-protein kinase pim-3 (Homo sapiens, UniProt Q86V86)
Procedure: as §1

[5] = biological target: Rho-associated protein kinase 2 (Homo sapiens, UniProt O75116)
Procedure: as §1

Death-associated protein kinase 1, sequence (P53355 whole entry): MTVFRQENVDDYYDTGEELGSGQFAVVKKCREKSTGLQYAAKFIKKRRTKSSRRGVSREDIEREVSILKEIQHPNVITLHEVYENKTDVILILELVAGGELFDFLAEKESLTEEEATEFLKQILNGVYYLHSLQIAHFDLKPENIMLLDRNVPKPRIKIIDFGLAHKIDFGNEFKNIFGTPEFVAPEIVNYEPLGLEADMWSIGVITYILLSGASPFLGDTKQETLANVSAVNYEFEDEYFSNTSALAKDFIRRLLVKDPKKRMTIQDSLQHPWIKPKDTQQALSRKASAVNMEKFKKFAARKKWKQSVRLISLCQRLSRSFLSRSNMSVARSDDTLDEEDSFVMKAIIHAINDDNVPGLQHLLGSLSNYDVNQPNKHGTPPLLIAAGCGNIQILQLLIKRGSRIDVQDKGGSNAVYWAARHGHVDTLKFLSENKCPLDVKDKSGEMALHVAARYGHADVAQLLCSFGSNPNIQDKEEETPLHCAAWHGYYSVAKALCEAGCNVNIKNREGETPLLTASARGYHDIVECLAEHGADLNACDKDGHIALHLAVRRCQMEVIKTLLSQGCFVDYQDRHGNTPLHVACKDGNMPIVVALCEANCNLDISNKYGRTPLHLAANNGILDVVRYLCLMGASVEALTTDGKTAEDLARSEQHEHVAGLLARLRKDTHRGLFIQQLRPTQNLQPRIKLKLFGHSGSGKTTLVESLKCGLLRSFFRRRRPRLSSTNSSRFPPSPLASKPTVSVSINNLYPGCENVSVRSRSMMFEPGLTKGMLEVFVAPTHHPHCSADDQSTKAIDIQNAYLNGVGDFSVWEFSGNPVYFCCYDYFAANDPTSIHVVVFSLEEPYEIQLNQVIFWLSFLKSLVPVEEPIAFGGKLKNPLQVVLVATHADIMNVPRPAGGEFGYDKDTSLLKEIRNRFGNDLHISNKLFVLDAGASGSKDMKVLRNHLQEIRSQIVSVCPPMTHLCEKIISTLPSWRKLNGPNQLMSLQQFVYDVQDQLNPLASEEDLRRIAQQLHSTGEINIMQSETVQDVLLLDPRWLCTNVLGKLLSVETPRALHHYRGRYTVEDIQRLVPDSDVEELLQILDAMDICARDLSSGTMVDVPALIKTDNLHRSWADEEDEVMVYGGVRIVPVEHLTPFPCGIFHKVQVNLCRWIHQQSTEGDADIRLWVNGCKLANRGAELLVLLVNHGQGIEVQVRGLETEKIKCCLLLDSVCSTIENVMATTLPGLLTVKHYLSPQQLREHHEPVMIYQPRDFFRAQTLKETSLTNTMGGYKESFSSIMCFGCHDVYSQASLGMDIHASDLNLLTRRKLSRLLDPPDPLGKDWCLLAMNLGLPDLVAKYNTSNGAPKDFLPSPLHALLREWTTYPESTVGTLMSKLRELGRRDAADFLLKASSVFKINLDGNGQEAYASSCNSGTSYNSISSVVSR
Serine/threonine-protein kinase pim-1, sequence (P11309 whole entry): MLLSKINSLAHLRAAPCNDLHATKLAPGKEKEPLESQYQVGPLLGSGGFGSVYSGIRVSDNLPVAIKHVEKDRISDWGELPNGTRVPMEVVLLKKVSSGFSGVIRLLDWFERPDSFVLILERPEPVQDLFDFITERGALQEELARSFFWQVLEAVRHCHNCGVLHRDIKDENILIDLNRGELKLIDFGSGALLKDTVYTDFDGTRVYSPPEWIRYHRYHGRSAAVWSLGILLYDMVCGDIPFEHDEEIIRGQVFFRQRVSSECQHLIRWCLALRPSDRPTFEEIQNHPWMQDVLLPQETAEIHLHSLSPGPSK
Serine/threonine-protein kinase pim-2, sequence (Q9P1W9 whole entry): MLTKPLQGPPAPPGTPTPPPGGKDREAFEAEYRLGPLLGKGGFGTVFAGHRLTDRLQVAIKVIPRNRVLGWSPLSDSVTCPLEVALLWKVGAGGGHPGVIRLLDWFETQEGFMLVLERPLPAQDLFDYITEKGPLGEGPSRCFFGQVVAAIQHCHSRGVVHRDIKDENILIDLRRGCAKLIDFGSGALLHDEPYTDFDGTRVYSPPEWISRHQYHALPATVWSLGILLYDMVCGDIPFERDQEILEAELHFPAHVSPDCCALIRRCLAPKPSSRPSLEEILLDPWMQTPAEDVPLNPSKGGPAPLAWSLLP
Rho-associated protein kinase 2, sequence (O75116 whole entry): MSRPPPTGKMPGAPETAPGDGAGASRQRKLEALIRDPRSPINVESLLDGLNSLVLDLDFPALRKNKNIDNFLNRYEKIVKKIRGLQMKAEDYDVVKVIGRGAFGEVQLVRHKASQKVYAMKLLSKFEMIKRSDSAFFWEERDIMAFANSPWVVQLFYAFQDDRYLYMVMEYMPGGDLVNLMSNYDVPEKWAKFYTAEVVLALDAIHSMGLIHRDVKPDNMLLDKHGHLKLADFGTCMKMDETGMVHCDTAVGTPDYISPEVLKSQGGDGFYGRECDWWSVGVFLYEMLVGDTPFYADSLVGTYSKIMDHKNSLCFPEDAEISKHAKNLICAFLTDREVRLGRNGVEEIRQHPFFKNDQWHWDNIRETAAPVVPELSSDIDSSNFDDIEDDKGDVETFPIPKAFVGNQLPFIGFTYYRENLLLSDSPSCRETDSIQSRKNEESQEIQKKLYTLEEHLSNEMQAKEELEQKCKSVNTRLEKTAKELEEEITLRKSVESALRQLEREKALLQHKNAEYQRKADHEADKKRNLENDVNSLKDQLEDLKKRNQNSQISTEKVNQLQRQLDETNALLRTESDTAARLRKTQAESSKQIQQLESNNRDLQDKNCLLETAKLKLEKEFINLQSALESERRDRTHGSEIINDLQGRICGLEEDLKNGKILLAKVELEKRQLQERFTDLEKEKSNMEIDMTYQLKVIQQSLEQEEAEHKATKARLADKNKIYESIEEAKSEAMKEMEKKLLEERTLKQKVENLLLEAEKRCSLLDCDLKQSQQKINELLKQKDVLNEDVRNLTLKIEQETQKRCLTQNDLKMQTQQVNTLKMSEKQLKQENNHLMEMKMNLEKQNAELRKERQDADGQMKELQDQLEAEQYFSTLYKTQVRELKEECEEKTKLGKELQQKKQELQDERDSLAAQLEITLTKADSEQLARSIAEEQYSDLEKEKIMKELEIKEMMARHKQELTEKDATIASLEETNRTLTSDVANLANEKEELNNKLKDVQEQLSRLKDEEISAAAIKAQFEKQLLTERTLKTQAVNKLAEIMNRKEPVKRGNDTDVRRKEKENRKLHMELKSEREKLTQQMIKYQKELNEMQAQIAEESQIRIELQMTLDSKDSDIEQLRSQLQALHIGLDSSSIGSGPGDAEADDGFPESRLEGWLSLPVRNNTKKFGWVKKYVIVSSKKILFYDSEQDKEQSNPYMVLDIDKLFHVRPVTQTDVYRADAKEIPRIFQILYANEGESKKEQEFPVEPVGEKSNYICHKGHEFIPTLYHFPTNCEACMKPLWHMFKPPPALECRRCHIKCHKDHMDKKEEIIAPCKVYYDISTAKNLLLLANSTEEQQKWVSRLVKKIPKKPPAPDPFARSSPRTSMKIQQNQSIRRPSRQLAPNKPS

Kd [1]	Kd [2]	Kd [4]	IC50 [5]	Structure (SMILES)	Kd [3]
3200 nM	1800 nM	1600 nM		O=c1[nH]c(SCCO)nc2c1cnn2-c1cccc(Cl)c1 [HS43]	1500 nM and 320 nM
6500 nM	1800 nM	810 nM	> 200000 nM	CC(Sc1nc2c(cnn2-c2cccc(Cl)c2)c(=O)[nH]1)C(N)=O (centres undefined) [HS38]	300 nM and 79 nM and 280 nM
